# Measured values: patent US12357698B1, “FUS proteolysis-targeting chimera, preparation method and applications thereof” (SHANDONG NORMAL UNIVERSITY, priority 2024, dated 2025)
# Where a chain is given by its changes, count along the chain named.
# What was measured:
# Assay type in all cases: cell-based
# FUS-WT = biological target: T1, FUS-WT (Homo sapiens, UniProt P35637); experiment: Degradation of FUS-WT in 293T cells, Western blot; settings: 1000 nM, 24 hours
# T1 construct: expressed in transfected cells; host or cells: 293T cells
# T1 sequence (P35637 1-526): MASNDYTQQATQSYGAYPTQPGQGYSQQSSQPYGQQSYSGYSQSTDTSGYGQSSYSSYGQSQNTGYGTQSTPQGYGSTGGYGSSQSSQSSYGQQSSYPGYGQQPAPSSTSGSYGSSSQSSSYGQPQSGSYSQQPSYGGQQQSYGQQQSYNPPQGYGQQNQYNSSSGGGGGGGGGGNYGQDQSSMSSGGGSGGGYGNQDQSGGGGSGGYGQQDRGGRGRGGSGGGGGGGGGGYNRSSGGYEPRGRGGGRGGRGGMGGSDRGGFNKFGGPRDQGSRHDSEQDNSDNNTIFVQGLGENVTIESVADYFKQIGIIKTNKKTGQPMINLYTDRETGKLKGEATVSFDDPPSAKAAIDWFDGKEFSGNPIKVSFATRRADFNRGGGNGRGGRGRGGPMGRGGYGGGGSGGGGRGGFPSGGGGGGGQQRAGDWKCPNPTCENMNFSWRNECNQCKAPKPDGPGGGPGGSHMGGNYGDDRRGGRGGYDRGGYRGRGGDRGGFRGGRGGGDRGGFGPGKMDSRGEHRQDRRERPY
# FUS-R521H = biological target: T2, FUS-R521H (Homo sapiens, UniProt P35637, R521H); experiment: Degradation of mutant FUS-R521H in 293T cells, Western blot; settings: 1000 nM, 24 hours
# T2 construct: expressed in transfected cells; host or cells: 293T cells
# T2 sequence (P35637 1-526 R521H): T1 sequence (P35637 1-526) with R521H
# Experimental: (§1) dFUS-C1 solutions were prepared at concentration gradients of 37.5 nM, 62.5 nM, 125 nM, 250 nM, 500 nM, 1000 nM, and 2000 nM, and were transfected into 293T cells expressing different mutant FUS proteins using liposomes. After 24 hours, the cells were lysed, and changes in FUS protein were detected by Western blot. FIG. 11A to FIG. 11E show the degradation of different mutant FUS by dFUS-C1 in 293T cells.
# FUS-R521C = biological target: T3, FUS-R521C (Homo sapiens, UniProt P35637, R521C); experiment: Degradation of mutant FUS-R521C in 293T cells, Western blot; settings: 1000 nM, 24 hours
# T3 construct: expressed in transfected cells; host or cells: 293T cells
# T3 sequence (P35637 1-526 R521C): T1 sequence (P35637 1-526) with R521C
# Experimental: as §1
# SH-SY5Y cells = experiment: Neurotoxicity caused by FUS overexpression (ROS, LDH release, CCK8); settings: SH-SY5Y cells transfected with FUS plasmids, CCK8 cell viability
# Experimental: In this example, ROS detection kit, LDH release detection kit, and CCK8 reagent were used for cytotoxicity detection. Specifically: 5×10^3 SH-SY5Y cells were added to 96-well plates and cultured at 37° C., 5% CO2 cell incubator for 12 hours; FUS plasmids were transfected into the wells, then the cells were cultured at 37° C., 5% CO2 cell incubator for 24 hours, indicated reagents were added to each well, and corresponding indicators were detected according to the kit instructions.
# FUS protein [1] = experiment: Proteomics before and after dFUS-C1 treatment
# FUS protein [2] = biological target: T4, FUS protein (Homo sapiens, UniProt P35637); experiment: FUS degradation in SH-SY5Y cells, Western blot; settings: concentration gradient 9.4-125 nM, liposome transfection, 24 hours
# T4 construct: endogenous in cells; host or cells: SH-SY5Y cells
# T4 sequence (P35637 1-526): T1 sequence (P35637 1-526)
# Experimental: (§2) dFUS-C1 solutions were prepared at concentration gradients of 9.4 nM, 18.7 nM, 37.5 nM, 62.5 nM, and 125 nM, and were transfected into PC12 or SH-SY5Y cells using liposomes. After 24 hours, the cells were lysed, and changes in FUS protein were detected by Western blot.
# Then 15% non-denaturing polyacrylamide gel electrophoresis was performed at 120 V for about 70 min, followed by staining with SYBR Gold nucleic acid gel stain, and finally imaged using a Bio-RAD instrument. […] For testing the FUS protein degradation performance of dFUS-PS, dFUS-PS solutions were prepared at concentration gradients of 9.4 nM, 18.7 nM, 37.5 nM, 62.5 nM, and 125 nM, and were transfected into SH-SY5Y cells using liposomes. After 24 hours, the cells were lysed, and changes in FUS protein were detected by Western blot.
# FUS-P525L = biological target: T5, FUS-P525L (Homo sapiens, UniProt P35637, P525L); experiment: Degradation of mutant FUS-P525L in 293T cells, Western blot; settings: 1000 nM, 24 hours
# T5 construct: expressed in transfected cells; host or cells: 293T cells
# T5 sequence (P35637 1-526 P525L): T1 sequence (P35637 1-526) with P525L
# Experimental: as §1
# FUS protein [3] = biological target: T6, FUS protein (Rattus norvegicus, UniProt Q5PQK2); experiment: FUS degradation in PC12 cells, Western blot; settings: liposome transfection, 24 hours
# T6 construct: endogenous in cells; host or cells: PC12 cells
# T6 sequence (Q5PQK2 1-515): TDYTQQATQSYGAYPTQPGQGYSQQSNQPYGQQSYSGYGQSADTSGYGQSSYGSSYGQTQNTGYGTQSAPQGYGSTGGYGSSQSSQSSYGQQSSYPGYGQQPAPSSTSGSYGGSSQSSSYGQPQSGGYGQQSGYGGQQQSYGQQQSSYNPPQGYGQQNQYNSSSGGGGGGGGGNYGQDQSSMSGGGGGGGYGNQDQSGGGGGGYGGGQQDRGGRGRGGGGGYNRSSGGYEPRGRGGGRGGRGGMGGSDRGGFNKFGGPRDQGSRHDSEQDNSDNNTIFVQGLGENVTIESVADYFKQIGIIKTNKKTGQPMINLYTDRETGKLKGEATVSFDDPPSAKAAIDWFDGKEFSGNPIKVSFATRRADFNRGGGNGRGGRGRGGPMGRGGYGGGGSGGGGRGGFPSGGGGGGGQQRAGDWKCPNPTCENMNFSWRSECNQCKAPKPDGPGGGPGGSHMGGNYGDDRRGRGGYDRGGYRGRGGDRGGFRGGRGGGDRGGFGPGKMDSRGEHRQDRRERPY
# Experimental: The 10 PROTACs were transfected into PC12 cells at a final concentration of 125 nM using liposomes. After 24 hours, the cells were lysed, and changes in FUS protein were detected by Western blot.
# as §2
# FUS-R521G = biological target: T7, FUS-R521G (Homo sapiens, UniProt P35637, R521G); experiment: Degradation of mutant FUS-R521G in 293T cells, Western blot; settings: 1000 nM, 24 hours
# T7 construct: expressed in transfected cells; host or cells: 293T cells
# T7 sequence (P35637 1-526 R521G): T1 sequence (P35637 1-526) with R521G
# Experimental: as §1
substance,measurement,setting,value
"dFUS-C1: PROTAC obtained by coupling FUS-1 (N3-FUS-RNA #1, SEQ ID NO: 1) with CRBN ligand (GUUUGGUGAUGUUUGGUGAU; RNA, backbone not given here; 5' azide via C6 amino linker, click-coupled to CRBN ligand (PROTAC))",degradation of FUS-WT,FUS-WT,could efficiently degrade
same,degradation of FUS-R521H,FUS-R521H,could efficiently degrade
same,degradation of FUS-R521C,FUS-R521C,could efficiently degrade
same,neurotoxicity caused by FUS overexpression,SH-SY5Y cells,significantly inhibited the neurotoxicity caused by FUS overexpression
same,specificity of degradation (proteomics),FUS protein [1],specific degradation effects on FUS protein
same,degradation of FUS protein,FUS protein [2],could efficiently degrade FUS protein
same,degradation of FUS-P525L,FUS-P525L,could efficiently degrade
same,degradation of FUS protein,FUS protein [3]; 125 nM,stably and efficiently degrade FUS protein
same,degradation of FUS protein,FUS protein [3]; concentration gradient 9.4-125 nM,could efficiently degrade FUS protein
same,degradation of FUS-R521G,FUS-R521G,could efficiently degrade
